Data from patent publication US20110190267A1, “PRODRUGS OF OPIOIDS AND USES THEREOF” (priority 2010, published 2011).
“And” between values parts separate entries of the source, which are not always exact repeats. Equal entries are not always repeated. Marks after values point to notes of the source that are not given here.

Tests used:
[1] = Pharmacokinetics of dextrorphan or dextrorphan PABA carbamate, monkeys (Example 47); format: in vivo, cynomolgus monkeys; details: for half-life: read-out: t½ (converted)
Protocol: (§1) Blood samples were taken at various times after administration, and submitted to analysis for the parent drug and prodrug using a validated LC-MS-MS assay. Pharmacokinetic parameters derived from the plasma analytical data were determined using Win Nonlin.

[2] = Pharmacokinetics of dextrorphan or dextrorphan PABA carbamate, dogs (Example 48); format: in vivo, beagle dogs
Protocol: Data were normalized to 1 mg/kg

[3] = Pharmacokinetics of levorphanol or levorphanol PABA carbamate, monkeys (Example 45); format: in vivo; details: levorphanol in plasma after oral levorphanol, 5 mg free base equivalent/kg; for half-life: read-out: t½ (converted)
Protocol: as §1

[4] = Pharmacokinetics of levorphanol or levorphanol PABA carbamate, dogs (Example 46); format: in vivo, Beagle dogs; details: for AUC / Cmax / Tmax / half-life / T>50%Cmax: levorphanol in plasma after oral levorphanol, 5 mg free base equivalents/kg, female beagle dog; for AUC: AUClast; for half-life / T>50%Cmax: maximum of 30% extrapolation allowed; for half-life: read-out: t½ (converted)
Protocol: as §1

[5] = Pharmacokinetics of nalbuphine or nalbuphine PABA carbamate, rats (Example 42); format: in vivo, Wistar rats; details: for half-life: read-out: t½ (converted)
Protocol: Test substances (nalbuphine at 3 mg nalbuphine free base equivalents/kg or nalbuphine para amino benzoic acid carbamate at 3 mg nalbuphine free base equivalents/kg) were administered by oral gavage to groups of male Wistar rats in a parallel group study design.
Blood samples were taken at various times after administration and submitted to analysis for the parent drug and pro-drug using a validated LC-MS-MS assay. Pharmacokinetic parameters derived from the plasma analytical data were determined using Win Nonlin.

[6] = dextrorphan in plasma after oral dextrorphan, 5 mg free base equivalents/kg, male cynomolgus monkeys, single animal
[7] = dextrorphan in plasma after oral dextrorphan, 5 mg free base equivalents/kg, female dogs, single animal
[8] = male cynomolgus monkeys, single animal
[9] = male, cynomolgus monkey, plasma, po, 5 mg levorphanol free base equivalents/kg, Mean
[10] = male, cynomolgus monkey, plasma, po, 5 mg levorphanol free base equivalents/kg, single animal
[11] = nalbuphine PABA carbamate in plasma after oral p-aminobenzoic acid carbamate prodrug, 3 mg nalbuphine equivs/kg, male rats, single animal
[12] = nalbuphine in plasma after oral nalbuphine, 3 mg free base equivalents/kg, male rats, single animal

Structure (SMILES): CN1CC[C@@]23CCCC[C@@H]2[C@@H]1Cc1ccc(O)cc13 [dextrorphan]
- T>50%Cmax ([1]; dextrorphan in plasma after oral dextrorphan, 5 mg free base equivalents/kg, male cynomolgus monkeys, Mean): 3.5 h
- Cmax [1, 6]: 3.0 ng/mL and 3.5 ng/mL and 5.5 ng/mL
- T>50%Cmax [1, 6]: 3.7 h and 3.5 h and 4.5 h and 2.5 h and 3.3 h
- Tmax [1, 6]: 1.0 h
- AUC ([1]; dextrorphan in plasma after oral dextrorphan, 5 mg free base equivalents/kg, male cynomolgus monkeys, single animal (animal 12: extrapolation of AUC data 39%)): 14* ng · h/mL and 19 ng · h/mL (2×) and 13 ng · h/mL
- AUC ([1]; male, cynomolgus monkey, plasma, po, 5 mg dextrorphan free base equivalents/kg, dextrorphan in plasma after oral dextrorphan, 5 mg free base equivalents/kg, male cynomolgus monkeys, Mean, read-out: AUC): 17 ng·h/mL
- Cmax ([1]; male, cynomolgus monkey, plasma, po, 5 mg dextrorphan free base equivalents/kg, dextrorphan in plasma after oral dextrorphan, 5 mg free base equivalents/kg, male cynomolgus monkeys, Mean, read-out: Cmax): 3.9 ng/mL
- Tmax ([1]; male, cynomolgus monkey, plasma, po, 5 mg dextrorphan free base equivalents/kg, dextrorphan in plasma after oral dextrorphan, 5 mg free base equivalents/kg, male cynomolgus monkeys, Mean, read-out: Tmax): 1.6 h
- half-life ([1]; male, cynomolgus monkey, plasma, po, 5 mg dextrorphan free base equivalents/kg, dextrorphan in plasma after oral dextrorphan, 5 mg free base equivalents/kg, male cynomolgus monkeys, Mean): 2.1 h
- Cmax ([1]; male, cynomolgus monkey, plasma, po, 5 mg dextrorphan free base equivalents/kg, dextrorphan in plasma after oral dextrorphan, 5 mg free base equivalents/kg, male cynomolgus monkeys, single animal, read-out: Cmax): 4.3 ng/mL
- Tmax ([1]; male, cynomolgus monkey, plasma, po, 5 mg dextrorphan free base equivalents/kg, dextrorphan in plasma after oral dextrorphan, 5 mg free base equivalents/kg, male cynomolgus monkeys, single animal, read-out: Tmax): 2 h
- half-life ([1]; male, cynomolgus monkey, plasma, po, 5 mg dextrorphan free base equivalents/kg, dextrorphan in plasma after oral dextrorphan, 5 mg free base equivalents/kg, male cynomolgus monkeys, single animal): 2.3 h
- AUC ([1]; male, cynomolgus monkey, plasma, po, 5 mg dextrorphan free base equivalents/kg, read-out: AUC): 20 ng·h/mL
- T>50%Cmax ([2]; dextrorphan in plasma after oral dextrorphan, 5 mg free base equivalents/kg, female dogs, Mean): 2.4 h
- AUC [2, 7]: 18.9 ng·h/mL and 13.4 ng·h/mL and 8.3 ng·h/mL and 10.7 ng·h/mL and 12.4 ng·h/mL
- Cmax [2, 7]: 4.2 ng/mL and 2.1 ng/mL and 3.8 ng/mL and 2.7 ng/mL
- T>50%Cmax [2, 7]: 2.9 h (2×) and 2.4 h and 2.2 h and 1.6 h
- Tmax [2, 7]: 1.0 h
- T>50% Cmax of dextrorphan ([2]; dogs, oral): 2.4 h
- AUC ([2]; female, beagle, dog, plasma, po, 5 mg dextrorphan free base equivalents/kg, dextrorphan in plasma after oral dextrorphan, 5 mg free base equivalents/kg, female dogs, Mean, read-out: AUC): 12.7 ng·h/mL
- Cmax ([2]; female, beagle, dog, plasma, po, 5 mg dextrorphan free base equivalents/kg, dextrorphan in plasma after oral dextrorphan, 5 mg free base equivalents/kg, female dogs, Mean, read-out: Cmax): 3.3 ng/mL
- Tmax ([2]; female, beagle, dog, plasma, po, 5 mg dextrorphan free base equivalents/kg, dextrorphan in plasma after oral dextrorphan, 5 mg free base equivalents/kg, female dogs, Mean, read-out: Tmax): 0.6 h
- Cmax ([2]; female, beagle, dog, plasma, po, 5 mg dextrorphan free base equivalents/kg, dextrorphan in plasma after oral dextrorphan, 5 mg free base equivalents/kg, female dogs, single animal, read-out: Cmax): 3.6 ng/mL
- Tmax ([2]; female, beagle, dog, plasma, po, 5 mg dextrorphan free base equivalents/kg, dextrorphan in plasma after oral dextrorphan, 5 mg free base equivalents/kg, female dogs, single animal, read-out: Tmax): 0.5 h
- half-life ([2]; female, beagle, dog, plasma, po, 5 mg free base equivalents/kg, dextrorphan in plasma after oral dextrorphan, 5 mg free base equivalents/kg, female dogs, Mean, read-out: t½ (converted)): 3.1 h

Structure (SMILES): CN1CC[C@]23CCCC[C@H]2[C@H]1Cc1ccc(O)cc13 [levorphanol]
- AUC [3, 8]: 28 ng·h/mL and 34 ng·h/mL and 27 ng·h/mL
- Cmax [3, 8]: 6.6 ng/mL and 8.2 ng/mL and 7.6 ng/mL
- t½ [3, 8]: 2.1 h and 1.6 h
- Tmax [3, 9]: 1.5 h
- AUC ([3]; male, cynomolgus monkey, plasma, po, 5 mg levorphanol free base equivalents/kg, Mean, read-out: AUC): 28 ng·h/mL
- Cmax ([3]; male, cynomolgus monkey, plasma, po, 5 mg levorphanol free base equivalents/kg, Mean, read-out: Cmax): 7.1 ng/mL
- half-life [3, 9]: 1.7 h
- Tmax [3, 10]: 2 h
- AUC ([3]; male, cynomolgus monkey, plasma, po, 5 mg levorphanol free base equivalents/kg, single animal, read-out: AUC): 22 ng·h/mL
- Cmax ([3]; male, cynomolgus monkey, plasma, po, 5 mg levorphanol free base equivalents/kg, single animal, read-out: Cmax): 6.2 ng/mL
- half-life [3, 10]: 1.5 h
- T>50%Cmax of levorphanol ([4]; dogs, oral 5 mg levorphanol free base equivalents/kg): 1.4 h
- AUC ([4]; female, beagle, dog, plasma, po, 5 mg levorphanol free base equivalents/kg, Mean, read-out: AUC): 10 ng·h/mL
- Cmax ([4]; female, beagle, dog, plasma, po, 5 mg levorphanol free base equivalents/kg, Mean, read-out: Cmax): 3.8 ng/mL
- Tmax ([4]; female, beagle, dog, plasma, po, 5 mg levorphanol free base equivalents/kg, Mean, read-out: Tmax): 0.6 h
- half-life ([4]; female, beagle, dog, plasma, po, 5 mg levorphanol free base equivalents/kg, Mean): 1.2 h
- half-life ([4]; female, beagle, dog, plasma, po, 5 mg levorphanol free base equivalents/kg, single animal): 0.8 h
- Tmax ([4]; female, beagle, dog, plasma, po, 5 mg levorphanol free base equivalents/kg, single animal, read-out: Tmax): 1 h
- AUC ([4]; single animal): 5.8 ng·h/mL and 19 ng·h/mL and 16 ng·h/mL and 6.6 ng·h/mL and 2.8 ng·h/mL
- T>50%Cmax ([4]; Mean): 1.4 h
- T>50%Cmax ([4]; single animal): 1.5 h and 1.3 h
- Cmax ([4]; single animal): 4.2 ng/mL and 3.2 ng/mL and 5.3 ng/mL and 4.3 ng/mL and 1.9 ng/mL
- Tmax ([4]; single animal): 0.5 h

Structure (SMILES): O=C(Nc1ccc(C(=O)O)cc1)Oc1ccc2c3c1O[C@H]1[C@@H](O)CC[C@@]4(O)[C@@H](C2)N(CC2CCC2)CC[C@]314 [nalbuphine PABA carbamate, nalbuphine para amino benzoic acid carbamate]
- AUC ([5]; male, Wistar, rat, plasma, po, 3 mg nalbuphine free base equivalents/kg, nalbuphine PABA carbamate in plasma after oral p-aminobenzoic acid carbamate prodrug, 3 mg nalbuphine equivs/kg, Mean, read-out: AUC): 11 ng·h/mL
- Cmax ([5]; male, Wistar, rat, plasma, po, 3 mg nalbuphine free base equivalents/kg, nalbuphine PABA carbamate in plasma after oral p-aminobenzoic acid carbamate prodrug, 3 mg nalbuphine equivs/kg, Mean, read-out: Cmax): 12 ng/mL
- Tmax ([5]; male, Wistar, rat, plasma, po, 3 mg nalbuphine free base equivalents/kg, nalbuphine PABA carbamate in plasma after oral p-aminobenzoic acid carbamate prodrug, 3 mg nalbuphine equivs/kg, Mean, read-out: Tmax): 0.25 h
- half-life ([5]; male, Wistar, rat, plasma, po, 3 mg nalbuphine free base equivalents/kg, nalbuphine PABA carbamate in plasma after oral p-aminobenzoic acid carbamate prodrug, 3 mg nalbuphine equivs/kg, Mean): 0.8 h
- AUC ([5]; male, Wistar, rat, plasma, po, 3 mg nalbuphine free base equivalents/kg, nalbuphine PABA carbamate in plasma after oral p-aminobenzoic acid carbamate prodrug, 3 mg nalbuphine equivs/kg, single animal, read-out: AUC): 14 ng·h/mL
- Cmax ([5]; male, Wistar, rat, plasma, po, 3 mg nalbuphine free base equivalents/kg, nalbuphine PABA carbamate in plasma after oral p-aminobenzoic acid carbamate prodrug, 3 mg nalbuphine equivs/kg, single animal, read-out: Cmax): 16 ng/mL
- Tmax ([5]; male, Wistar, rat, plasma, po, 3 mg nalbuphine free base equivalents/kg, nalbuphine PABA carbamate in plasma after oral p-aminobenzoic acid carbamate prodrug, 3 mg nalbuphine equivs/kg, single animal, read-out: Tmax): 0.25 h
- AUC [5, 11]: 9.4 ng·h/mL and 11 ng·h/mL
- Cmax [5, 11]: 11 ng/mL and 9.2 ng/mL
- t½ [5, 11]: 0.5 h and 0.8 h and 1.2 h

Structure (SMILES): Oc1ccc2c3c1O[C@H]1[C@@H](O)CC[C@@]4(O)[C@@H](C2)N(CC2CCC2)CC[C@]314 [nalbuphine]
- AUC ([5]; male, Wistar, rat, plasma, po, 3 mg nalbuphine free base equivalents/kg, nalbuphine in plasma after oral nalbuphine, 3 mg free base equivalents/kg, Mean, read-out: AUC): 1.2 ng·h/mL
- Cmax ([5]; male, Wistar, rat, plasma, po, 3 mg nalbuphine free base equivalents/kg, nalbuphine in plasma after oral nalbuphine, 3 mg free base equivalents/kg, Mean, read-out: Cmax): 1 ng/mL
- Tmax ([5]; male, Wistar, rat, plasma, po, 3 mg nalbuphine free base equivalents/kg, nalbuphine in plasma after oral nalbuphine, 3 mg free base equivalents/kg, Mean, read-out: Tmax): 0.8 h
- half-life ([5]; male, Wistar, rat, plasma, po, 3 mg nalbuphine free base equivalents/kg, nalbuphine in plasma after oral nalbuphine, 3 mg free base equivalents/kg, Mean): 1.4 h
- Cmax ([5]; male, Wistar, rat, plasma, po, 3 mg nalbuphine free base equivalents/kg, nalbuphine in plasma after oral nalbuphine, 3 mg free base equivalents/kg, single animal, read-out: Cmax): 1.4 ng/mL
- Tmax ([5]; male, Wistar, rat, plasma, po, 3 mg nalbuphine free base equivalents/kg, nalbuphine in plasma after oral nalbuphine, 3 mg free base equivalents/kg, single animal, read-out: Tmax): 0.5 h
- half-life ([5]; male, Wistar, rat, plasma, po, 3 mg nalbuphine free base equivalents/kg, nalbuphine in plasma after oral nalbuphine, 3 mg free base equivalents/kg, single animal): 1.2 h
- T>50%Cmax ([5]; nalbuphine in plasma after oral nalbuphine, 3 mg free base equivalents/kg, male rats, Mean): 1.3 h
- AUC [5, 12]: 1.8 ng·h/mL and 0.4 ng·h/mL and 1.3 ng·h/mL
- Cmax [5, 12]: 0.7 ng/mL and 0.8 ng/mL
- T>50%Cmax [5, 12]: 1.5 h and 0.7 h and 1.8 h
- Tmax [5, 12]: 1.0 h
- t½ [5, 12]: 1.6 h
